{
  "source": "patent US20150239835A1",
  "about": "“COMPOSITION, SYNTHESIS, AND USE OF A NEW CLASS OF ISONITRILES” (DUQUESNE UNIVERSITY OF THE HOLY GHOST, priority 2014, published 2015)",
  "data": [
    {"molecule": "[C-]#[N+]CSc1c(OC)cccc1OC", "note": "[Example 16, (2,6-dimethoxyphenyl)(isocyanomethyl)sulfane]", "values": [
      {"measurement": "melting point", "value": "47 to 48", "unit": "°C"}
    ]},
    {"molecule": "[C-]#[N+]CSc1c(OC)cccc1C(F)(F)F", "note": "[Example 17, 2-((Isocyanomethyl)sulfanyl)-1-methoxy-3-(trifluoromethyl)benzene]", "values": [
      {"measurement": "melting point", "value": "54 to 55", "unit": "°C"}
    ]}
  ]
}
